Measurements published in patent US20230391739A1, “ARYL DERIVATIVES FOR TREATING TRPM3 MEDIATED DISORDERS” (Katholieke Universiteit Leuven, priority 2020, published 2023).

Biological target: T1, mouse TRPM3α2 (mTRPM3) ion channel (Mus musculus, UniProt J9SQF3)
T1 construct: expressed in transfected cells; host or cells: flip-in HEK293
Test: TRPM3 ion channel driven Ca2+ uptake, Fluo-4 AM assay, PS-stimulated (mTRPM3)
Assay type: cell-based
Conditions: TRPM3 overexpressing flip-in HEK293 cells stimulated with Pregnenolone sulfate (PS) 50 μM, activity ranges A, B, C
Outline: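 Ca²⁺ influx through mouse TRPM3α2, opened by 50 μM pregnenolone sulfate, was tracked with Fluo-4 AM in stably transfected HEK293 cells read directly after seeding onto pre-dispensed compound.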

T1 sequence (J9SQF3 1-1709 isoform J9SQF3-12): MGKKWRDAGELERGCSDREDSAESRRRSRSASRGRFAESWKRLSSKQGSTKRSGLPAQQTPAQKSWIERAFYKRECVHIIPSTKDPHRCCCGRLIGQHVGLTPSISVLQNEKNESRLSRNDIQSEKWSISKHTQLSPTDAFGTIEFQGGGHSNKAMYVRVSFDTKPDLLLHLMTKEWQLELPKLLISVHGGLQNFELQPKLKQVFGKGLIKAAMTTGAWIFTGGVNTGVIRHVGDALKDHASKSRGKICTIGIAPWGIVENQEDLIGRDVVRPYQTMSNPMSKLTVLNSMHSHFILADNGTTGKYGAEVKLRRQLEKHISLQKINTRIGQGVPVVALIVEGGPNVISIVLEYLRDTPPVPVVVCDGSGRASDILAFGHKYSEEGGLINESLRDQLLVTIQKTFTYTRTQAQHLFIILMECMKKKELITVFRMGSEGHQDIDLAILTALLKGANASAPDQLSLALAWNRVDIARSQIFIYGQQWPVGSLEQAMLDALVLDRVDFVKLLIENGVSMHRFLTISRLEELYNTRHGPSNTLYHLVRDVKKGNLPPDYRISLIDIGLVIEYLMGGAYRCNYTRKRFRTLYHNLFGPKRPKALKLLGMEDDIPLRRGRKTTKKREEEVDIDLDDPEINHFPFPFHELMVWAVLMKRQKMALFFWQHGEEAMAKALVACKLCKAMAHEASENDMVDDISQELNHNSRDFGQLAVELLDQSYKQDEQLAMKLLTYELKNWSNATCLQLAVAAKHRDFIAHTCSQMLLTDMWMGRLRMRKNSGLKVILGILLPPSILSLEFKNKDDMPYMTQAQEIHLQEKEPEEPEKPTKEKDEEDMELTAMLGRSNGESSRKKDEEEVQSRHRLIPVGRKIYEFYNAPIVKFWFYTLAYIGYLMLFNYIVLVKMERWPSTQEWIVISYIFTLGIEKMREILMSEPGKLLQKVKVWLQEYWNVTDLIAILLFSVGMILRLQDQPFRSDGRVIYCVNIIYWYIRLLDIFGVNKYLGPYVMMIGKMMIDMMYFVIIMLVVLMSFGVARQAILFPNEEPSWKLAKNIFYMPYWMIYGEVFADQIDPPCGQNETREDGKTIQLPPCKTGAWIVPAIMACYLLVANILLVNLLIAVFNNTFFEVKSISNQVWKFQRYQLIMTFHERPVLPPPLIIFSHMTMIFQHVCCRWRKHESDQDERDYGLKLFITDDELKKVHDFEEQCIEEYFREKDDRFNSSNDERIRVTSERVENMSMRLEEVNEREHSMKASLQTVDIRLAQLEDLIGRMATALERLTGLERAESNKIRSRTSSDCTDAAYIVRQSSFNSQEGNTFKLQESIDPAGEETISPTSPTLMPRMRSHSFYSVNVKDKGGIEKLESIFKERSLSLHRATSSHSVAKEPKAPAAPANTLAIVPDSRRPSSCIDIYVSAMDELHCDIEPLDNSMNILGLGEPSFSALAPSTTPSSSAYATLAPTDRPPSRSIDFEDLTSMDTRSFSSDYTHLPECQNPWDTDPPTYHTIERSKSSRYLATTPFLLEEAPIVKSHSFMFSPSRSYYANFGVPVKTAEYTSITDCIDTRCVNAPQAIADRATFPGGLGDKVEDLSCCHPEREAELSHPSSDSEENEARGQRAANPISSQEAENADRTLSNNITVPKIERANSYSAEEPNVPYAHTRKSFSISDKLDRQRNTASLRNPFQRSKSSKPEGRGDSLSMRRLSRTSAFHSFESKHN

IC50 | SMILES
1 to 20 µM | Cc1oc2ccc(OC(C)c3ccccc3)cc2c1C(=O)O (stereo not drawn) [Cpd 004, 2-methyl-5-(1-phenylethoxy)benzofuran-3-carboxylic acid]
< 1 µM | Cc1oc2ccc(OCc3cccc(F)c3)cc2c1C(=O)N[C@H]1CCNC1 [Cpd 096, (S)-5-((3-fluorobenzyl)oxy)-2-methyl-N-(pyrrolidin-3-yl)benzofuran-3-carboxamide]
< 1 µM | Cc1cccc(COc2ccc3oc(C)c(C(=O)O)c3c2)c1 [Cpd 005, 2-methyl-5-((3-methylbenzyl)oxy)benzofuran-3-carboxylic acid]
> 20 µM | Cc1oc2ccc(OCc3ccccc3)cc2c1C(=O)NS(=O)(=O)C(F)(F)F [Cpd 195, 5-(benzyloxy)-2-methyl-N-((trifluoromethyl)sulfonyl)benzofuran-3-carboxamide]
< 1 µM | Cc1oc2ccc(OC(C)c3ccccc3C(F)(F)F)cc2c1C(=O)N[C@H]1CCNC1 (mixture of isomers) [Cpd 220, rac-2-methyl-N—((R)-pyrrolidin-3-yl)-5-(1-(2-(trifluoromethyl)phenyl)ethoxy)benzofuran-3-carboxamide]
> 20 µM | Cc1oc2ccc(OCc3cccc(OC(F)(F)F)c3)cc2c1C(=O)O [Cpd 028, 2-methyl-5-((3-(trifluoromethoxy)benzyl)oxy)benzofuran-3-carboxylic acid]
1 to 20 µM | Cc1oc2ccc(OCc3ccccc3)cc2c1C(=O)N[C@H]1CCN(C(=O)OC(C)(C)C)C1 [Cpd 239, tert-butyl (S)-3-(5-(benzyloxy)-2-methylbenzofuran-3-carboxamido)pyrrolidine-1-carboxylate]
< 1 µM | Cc1oc2ccc(OCc3ccccc3)cc2c1C(=O)NC1CCC(N(C)C)CC1 (stereo not drawn) [Cpd 186, 5-(benzyloxy)-N-(4-(dimethylamino)cyclohexyl)-2-methylbenzofuran-3-carboxamide]
1 to 20 µM | Cc1oc2cc(Cl)c(OCc3ccccc3)cc2c1C(=O)NC1CNCC1(F)F (single isomer, unassigned) [Cpd 300-En 1, 5-(benzyloxy)-6-chloro-N-(4,4-difluoropyrrolidin-3-yl)-2-methylbenzofuran-3-carboxamide]
< 1 µM | Cc1oc2ccc(OCc3ccccc3)cc2c1C(=O)NCC1(CO)COC1 [Cpd 128, 5-(benzyloxy)-N-((3-(hydroxymethyl)oxetan-3-yl)methyl)-2-methylbenzofuran-3-carboxamide]
< 1 µM | Cc1oc2ccc(OCc3ccccc3F)cc2c1C(=O)NC1(CO)CCNC1=O (single isomer, unassigned) [Cpd 334-En 1]
> 20 µM | Cc1oc2c(C#N)cc(OCc3ccccc3)cc2c1C(=O)NC1CNCC1(F)F (single isomer, unassigned) [Cpd 305-En 2, 5-(benzyloxy)-7-cyano-N-(4,4-difluoropyrrolidin-3-yl)-2-methylbenzofuran-3-carboxamide]
1 to 20 µM | COCCCN1CCC(NC(=O)c2c(C)oc3ccc(OCc4ccccc4)cc23)CC1 [Cpd 229, 5-(benzyloxy)-N-(1-(3-methoxypropyl)piperidin-4-yl)-2-methylbenzofuran-3-carboxamide]
< 1 µM | Cc1oc2ccc(OCc3cccc(F)c3F)cc2c1C(=O)N[C@H]1CCNC1 [Cpd 135, (S)-5-((2,3-difluorobenzyl)oxy)-2-methyl-N-(pyrrolidin-3-yl)benzofuran-3-carboxamide]
< 1 µM | Cc1oc2ccc(COc3ccccc3F)cc2c1C(=O)NC(C)C(N)=O (single isomer, unassigned) [Cpd 320-En 1]
< 1 µM | Cc1oc2ccc(OC(C)c3ccccc3)cc2c1C(=O)NC1(C(N)=O)CCC1 (single isomer, unassigned) [Cpd 343-En 1, N-(1-carbamoylcyclobutyl)-2-methyl-5-(1-phenylethoxy)benzofuran-3-carboxamide]
1 to 20 µM | Cc1oc2ccc(OCc3ccc(Cl)cc3)cc2c1C(=O)O [Cpd 016, 5-((4-chlorobenzyl)oxy)-2-methylbenzofuran-3-carboxylic acid]
< 1 µM | Cc1ccc(COc2ccc3oc(C)c(C(=O)N[C@H]4CCNC4)c3c2)cc1 [Cpd 085, (S)-2-methyl-5-((4-methylbenzyl)oxy)-N-(pyrrolidin-3-yl)benzofuran-3-carboxamide]
> 20 µM | Cc1oc2ccc(OCc3ccccc3)cc2c1C(=O)N1CCCCC1 [Cpd 047, (5-(benzyloxy)-2-methylbenzofuran-3-yl)(piperidin-1-yl)methanone]
< 1 µM | Cc1oc2ccc(OCc3ccccc3)cc2c1C(=O)NC1CCNCC1F (stereo not drawn) [Cpd 131, 5-(benzyloxy)-N-(3-fluoropiperidin-4-yl)-2-methylbenzofuran-3-carboxamide]
< 1 µM | Cc1oc2ccc(OCc3ccccc3)cc2c1C(=O)NC1CCOCC1 [Cpd 088, 5-(benzyloxy)-2-methyl-N-(tetrahydro-2H-pyran-4-yl)benzofuran-3-carboxamide]

IC50 | SMILES
1 to 20 µM | Cc1oc2ccc(OCc3ccccc3CO)cc2c1C(=O)NC1CCN(C)CC1 [Cpd 192, 5-((2-(hydroxymethyl)benzyl)oxy)-2-methyl-N-(1-methylpiperidin-4-yl)benzofuran-3-carboxamide]
1 to 20 µM | COCCCNC(=O)c1c(C)oc2ccc(OCc3ccccc3)cc12 [Cpd 056, 5-(benzyloxy)-N-(3-methoxypropyl)-2-methylbenzofuran-3-carboxamide]
< 1 µM | CCC(Oc1ccc2oc(C)c(C(=O)N[C@H]3CCNC3)c2c1)c1ccccc1C(F)(F)F (mixture of isomers) [Cpd 231, rac-2-methyl-N—((R)-pyrrolidin-3-yl)-5-(1-(2-(trifluoromethyl)phenyl)propoxy)benzofuran-3-carboxamide]
1 to 20 µM | Cc1oc2ccc(OCc3ccccc3)cc2c1C(=O)NC1CC(C)(C)NC(C)(C)C1 [Cpd 209, 5-(benzyloxy)-2-methyl-N-(2,2,6,6-tetramethylpiperidin-4-yl)benzofuran-3-carboxamide]
1 to 20 µM | Cc1ccc(COc2ccc3oc(C)c(C(=O)O)c3c2)cc1 [Cpd 006, 2-methyl-5-((4-methylbenzyl)oxy)benzofuran-3-carboxylic acid]
< 1 µM | Cc1oc2ccc(OC(C)c3ccccc3)cc2c1C(=O)NC1(CO)CCOCC1 (single isomer, unassigned) [Cpd 308-En 2, N-(4-(hydroxymethyl)tetrahydro-2H-pyran-4-yl)-2-methyl-5-(1-phenylethoxy)benzofuran-3-carboxamide]
1 to 20 µM | Cc1oc2ccc(OCc3ccccc3)cc2c1C(=O)NC1CN(C(=O)OC(C)(C)C)C1 [Cpd 228, tert-butyl 3-(5-(benzyloxy)-2-methylbenzofuran-3-carboxamido)azetidine-1-carboxylate]
1 to 20 µM | Cc1oc2ccc(OCc3ccccc3)cc2c1C(=O)NC1CCNC(=O)C1 (stereo not drawn) [Cpd 108, 5-(benzyloxy)-2-methyl-N-(2-oxopiperidin-4-yl)benzofuran-3-carboxamide]
< 1 µM | Cc1oc2ccc(OCc3ccccc3C(F)(F)F)cc2c1C(=O)NC1CNCC1(F)F (stereo not drawn) [Cpd 240, N-(4,4-difluoropyrrolidin-3-yl)-2-methyl-5-((2-(trifluoromethyl)benzyl)oxy)benzofuran-3-carboxamide]
1 to 20 µM | Cc1oc2ccc(OCc3ccc(F)cc3)cc2c1C(=O)NS(=O)(=O)C1CC1 [Cpd 177, N-(cyclopropylsulfonyl)-5-((4-fluorobenzyl)oxy)-2-methylbenzofuran-3-carboxamide]
< 1 µM | COCC(Oc1ccc2oc(C)c(C(=O)N[C@@H](CO)C(N)=O)c2c1)c1ccccc1 (single isomer, unassigned) [Cpd 346-En 2]
< 1 µM | Cc1oc2ccc(OCc3c(F)cccc3F)cc2c1C(=O)NC1CCNC1=O (stereo not drawn) [Cpd 172, 5-((2,6-difluorobenzyl)oxy)-2-methyl-N-(2-oxopyrrolidin-3-yl)benzofuran-3-carboxamide]
< 1 µM | Cc1oc2ccc(OCc3ccccc3F)cc2c1C(=O)NC1(CO)CCOCC1 [Cpd 197, 5-((2-fluorobenzyl)oxy)-N-(4-(hydroxymethyl)tetrahydro-2H-pyran-4-yl)-2-methylbenzofuran-3-carboxamide]
> 20 µM | Cc1oc2ccc(OCc3ccccc3)cc2c1C(=O)N1CC[C@@H](N(C)C)C1 [Cpd 118, (R)-(5-(benzyloxy)-2-methylbenzofuran-3-yl)(3-(dimethylamino)pyrrolidin-1-yl)methanone]
< 1 µM | Cc1oc2ccc(OCc3ccccc3)cc2c1C(=O)NCC1(N(C)C)CCCC1 [Cpd 187, 5-(benzyloxy)-N-((1-(dimethylamino)cyclopentyl)methyl)-2-methylbenzofuran-3-carboxamide]
> 20 µM | Cc1oc2ccc(OCc3ccccc3)cc2c1C(=O)Nc1cccnn1 [Cpd 062, 5-(benzyloxy)-2-methyl-N-(pyridazin-3-yl)benzofuran-3-carboxamide]
1 to 20 µM | Cc1oc2ccc(OCc3ccccc3)cc2c1C(=O)NCC(c1ccccc1)N(C)C (stereo not drawn) [Cpd 216, 5-(benzyloxy)-N-(2-(dimethylamino)-2-phenylethyl)-2-methylbenzofuran-3-carboxamide]
< 1 µM | Cc1oc2ccc(OCc3ccccc3)cc2c1C(=O)NC1CCCCC1 [Cpd 066, 5-(benzyloxy)-N-cyclohexyl-2-methylbenzofuran-3-carboxamide]
< 1 µM | Cc1oc2ccc(OCc3ccc(F)cc3F)cc2c1C(=O)N[C@@H](CO)C(N)=O [Cpd 340, (S)—N-(1-amino-3-hydroxy-1-oxopropan-2-yl)-5-((2,4-difluorobenzyl)oxy)-2-methylbenzofuran-3-carboxamide]
< 1 µM | Cc1oc2ccc(OCc3ccccc3F)cc2c1C(=O)NS(=O)(=O)C1CC1 [Cpd 175, N-(cyclopropylsulfonyl)-5-((2-fluorobenzyl)oxy)-2-methylbenzofuran-3-carboxamide]

SMILES | IC50
Cc1oc2ccc(OCc3ccccc3)cc2c1C(=O)N[C@@H]1C[C@H]2CC[C@@H](C1)N2C [Cpd 182, 5-(benzyloxy)-2-methyl-N-((1R,3s,5S)-8-methyl-8-azabicyclo[3.2.1]octan-3-yl)benzofuran-3-carboxamide] | < 1 µM
